According to patent publication US11833156B2, “Heterocyclic compounds as pad inhibitors” (JUBILANT EPIPAD LLC, priority 2017, dated 2023):
pIC50: −log10 of the molar value.

Biological target: PAD4 enzyme (Homo sapiens (Human), UniProt Q9UM07)
Test: Ammonia Release Biochemical Assay (citrullination detected via ammonia release)
Settings: PAD4 120 nM, substrate BAEE, 60-min preincubation, read-out: NH3 release
Protocol: Ammonia Release Biochemical Assay
Citrullination assay was detected via ammonia release. PAD4 enzyme was diluted to 120 nM in assay buffer (100 mM HEPES, 50 mM NaCl, 2 mM DDT, 0.6 mg/mL BSA, pH 7.4) added to wells containing various concentration of compound or DMSO vehicle (1% final) in black 384 well plate. Following a 60-min preincubation at room temperature, the reaction was initiated by the addition of substrate (1.5 mM BAEE in 200 mM HEPES, 50 mM NaCl, 350 uM CaCl2, 2 mM, pH 7.4). The reaction was stopped after 60 min by addition of stop/detection buffer containing 50 mM EDTA, 2.6 mM of o-phthaladehyde and 2.6 mM DTT. Assay was incubated at room temperature for 90 min before measuring fluorescence's (λex 405/λem 460 nm) on Tecan reader. IC50 was calculated using XL-fit software model 205. (Ref: Nat Chem Biol. 2015 March; 11(3):189-91).

PAD4 enzyme, sequence (Q9UM07 whole entry): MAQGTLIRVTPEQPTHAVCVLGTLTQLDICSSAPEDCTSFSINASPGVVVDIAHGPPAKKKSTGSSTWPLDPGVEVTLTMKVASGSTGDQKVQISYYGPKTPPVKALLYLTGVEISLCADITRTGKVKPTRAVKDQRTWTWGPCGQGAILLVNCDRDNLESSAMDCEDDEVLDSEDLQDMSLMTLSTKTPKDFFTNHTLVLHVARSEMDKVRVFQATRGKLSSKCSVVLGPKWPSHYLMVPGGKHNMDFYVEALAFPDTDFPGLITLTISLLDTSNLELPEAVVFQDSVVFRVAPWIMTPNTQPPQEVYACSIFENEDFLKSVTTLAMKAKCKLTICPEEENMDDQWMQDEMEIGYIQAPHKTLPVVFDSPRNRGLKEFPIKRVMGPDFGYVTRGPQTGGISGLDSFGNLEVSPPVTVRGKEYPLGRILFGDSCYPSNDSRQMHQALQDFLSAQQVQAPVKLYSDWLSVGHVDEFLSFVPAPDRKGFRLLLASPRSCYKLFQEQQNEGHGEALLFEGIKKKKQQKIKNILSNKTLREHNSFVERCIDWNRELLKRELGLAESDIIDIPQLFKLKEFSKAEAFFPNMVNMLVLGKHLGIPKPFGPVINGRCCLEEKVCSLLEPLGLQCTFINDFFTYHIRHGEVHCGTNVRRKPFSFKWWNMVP

Row | Compound | pIC50
1 | COc1ccc(Cn2c(-c3nc4cc(C(=O)N5CCC[C@@H](N)C5)cc5c4n3CCO5)cc3cc(F)ccc32)cc1 [Example 46, (R)-(3-aminopiperidin-1-yl)(2-(5-fluoro-1-(4-methoxybenzyl)-1H-indol-2-yl)-3,4-dihydro-5-oxa-1,2a-diazaacenaphthylen-7-yl)methanone] | ≥ 6.00
2 | COCCn1c(-c2nc3cc(C(=O)N4CCC[C@@H](N)C4)cc4c3n2CCO4)cc2cc(F)ccc21 [Example 48, (R)-(3-aminopiperidin-1-yl)(2-(5-fluoro-1-(2-methoxyethyl)-1H-indol-2-yl)-3,4-dihydro-5-oxa-1,2a-diazaacenaphthylen-7-yl)methanone] | ≥ 6.00
3 | N[C@@H]1CCCN(C(=O)c2cc3c4c(c2)nc(-c2cc5ccc(F)cc5n2Cc2ccc(F)cc2)n4CCO3)C1 [Example 49, (R)-(3-aminopiperidin-1-yl)(2-(6-fluoro-1-(4-fluorobenzyl)-1H-indol-2-yl)-3,4-dihydro-5-oxa-1,2a-diazaacenaphthylen-7-yl)methanone] | ≥ 6.00
4 | COc1ccc(Cn2c(-c3nc4cc(C(=O)N5CCC[C@@H](N)C5)cc5c4n3CCO5)cc3ccc(F)cc32)cc1 [Example 50, (R)-(3-aminopiperidin-1-yl)(2-(6-fluoro-1-(4-methoxybenzyl)-1H-indol-2-yl)-3,4-dihydro-5-oxa-1,2a-diazaacenaphthylen-7-yl)methanone] | ≥ 6.00
5 | COc1ccc2cc(-c3nc4cc(C(=O)N5CCC[C@@H](N)C5)cc5c4n3CCO5)n(Cc3ccc(F)cc3)c2c1 [Example 51, (R)-(3-aminopiperidin-1-yl)(2-(1-(4-fluorobenzyl)-6-methoxy-1H-indol-2-yl)-3,4-dihydro-5-oxa-1,2a-diazaacenaphthylen-7-yl)methanone] | ≥ 6.00
6 | COCCn1c(-c2nc3cc(C(=O)N4CCC[C@@H](N)C4)cc4c3n2CCO4)cc2cc(F)c(F)cc21 [Example 54, (R)-(3-aminopiperidin-1-yl)(2-(5,6-difluoro-1-(2-methoxyethyl)-1H-indol-2-yl)-3,4-dihydro-5-oxa-1,2a-diazaacenaphthylen-7-yl)methanone] | 5.00 to 6.00
7 | CC(C)Cn1c(-c2nc3cc(C(=O)N4CCC[C@@H](N)C4)cc4c3n2CCO4)cc2cccc(Cl)c21 [Example 55, (R)-(3-aminopiperidin-1-yl)(2-(7-chloro-1-isobutyl-1H-indol-2-yl)-3,4-dihydro-5-oxa-1,2a-diazaacenaphthylen-7-yl)methanone] | ≥ 6.00
8 | N[C@@H]1CCCN(C(=O)c2cc3c4c(c2)nc(-c2cc5cccc(Cl)c5n2CC2CC2)n4CCO3)C1 [Example 57, (R)-(3-aminopiperidin-1-yl)(2-(7-chloro-1-(cyclopropylmethyl)-1H-indol-2-yl)-3,4-dihydro-5-oxa-1,2a-diazaacenaphthylen-7-yl)methanone] | ≥ 6.00
9 | N[C@@H]1CCCN(C(=O)c2cc3c4c(c2)nc(-c2cc5cc(/C=C/c6ccccc6)ccc5n2CC2CC2)n4CCO3)C1 [Example 58, (R,E)-(3-aminopiperidin-1-yl)(2-(1-(cyclopropylmethyl)-5-styryl-1H-indol-2-yl)-3,4-dihydro-5-oxa-1,2a-diazaacenaphthylen-7-yl)methanone] | 5.00 to 6.00
10 | N[C@@H]1CCCN(C(=O)c2cc3c4c(c2)nc(-c2cc5ccc(CO)cc5n2CC2CC2)n4CCO3)C1 [Example 61, (R)-(3-aminopiperidin-1-yl)(2-(1-(cyclopropylmethyl)-6-(hydroxymethyl)-1H-indol-2-yl)-3,4-dihydro-5-oxa-1,2a-diazaacenaphthylen-7-yl)methanone] | ≥ 6.00
11 | CC1(C)COc2cc(C(=O)N3CCC[C@@H](N)C3)cc3nc(-c4cc5ccccc5n4CC4CC4)n1c23 [Example 62, (R)-(3-aminopiperidin-1-yl)(2-(1-(cyclopropylmethyl)-1H-indol-2-yl)-3,3-dimethyl-3,4-dihydro-5-oxa-1,2a-diazaacenaphthylen-7-yl)methanone] | ≤ 5.00
12 | N[C@@H]1CCCN(C(=O)c2cc3c4c(c2)nc(-c2cc5cc(Br)ccc5n2CC2CC2)n4CCN3)C1 [Example 67, (R)-(3-aminopiperidin-1-yl)(2-(5-bromo-1-(cyclopropylmethyl)-1H-indol-2-yl)-5,6-dihydro-4H-imidazo [1,5,4-de]quinoxalin-8-yl)methanone] | ≥ 6.00
13 | N[C@@H]1CCCN(C(=O)c2cc3c4c(c2)nc(-c2cc5ccccc5n2Cc2ccccc2F)n4CCN3)C1 [Example 70, (R)-(3-aminopiperidin-1-yl)(2-(1-(2-fluorobenzyl)-1H-indol-2-yl)-5,6-dihydro-4H-imidazo[1,5,4-de]quinoxalin-8-yl)methanone] | ≥ 6.00
14 | N[C@@H]1CCCN(C(=O)c2cc3c4c(c2)nc(-c2cc5ccccc5n2Cc2ccncc2)n4CCN3)C1 [Example 71, (R)-(3-aminopiperidin-1-yl)(2-(1-(pyridin-4-ylmethyl)-1H-indol-2-yl)-5,6-dihydro-4H-imidazo[1,5,4-de]quinoxalin-8-yl)methanone] | ≥ 6.00
15 | N[C@@H]1CCCN(C(=O)c2cc3c4c(c2)nc(-c2cc5ccccc5n2CC2CC2)n4CCN3C2CC2)C1 [Example 78, (R)-(3-aminopiperidin-1-yl)(6-cyclopropyl-2-(1-(cyclopropylmethyl)-1H-indol-2-yl)-5,6-dihydro-4H-imidazo[1,5,4-de]quinoxalin-8-yl)methanone] | ≥ 6.00
16 | N[C@@H]1CCCN(C(=O)c2cc3c4c(c2)nc(-c2cc5ccccc5n2CC2CC2)n4CCN3S(=O)(=O)CCc2ccccc2)C1 [Example 79, (R)-(3-aminopiperidin-1-yl)(2-(1-(cyclopropylmethyl)-1H-indol-2-yl)-6-(phenethylsulfonyl)-5,6-dihydro-4H-imidazo[1,5,4-de]quinoxalin-8-yl)methanone] | 5.00 to 6.00
17 | N[C@@H]1CCCN(C(=O)c2cc3c4c(c2)nc(-c2cc5c(F)cccc5n2CC2CC2)n4CCN3)C1 [Example 80, (R)-(3-aminopiperidin-1-yl)(2-(1-(cyclopropylmethyl)-4-fluoro-1H-indol-2-yl)-5,6-dihydro-4H-imidazo[1,5,4-de]quinoxalin-8-yl)methanone] | 5.00 to 6.00

The remaining lines, values ahead:

Row | pIC50 | Compound
18 | ≤ 5.00 | CN1CCC(Cn2c(-c3nc4cc(C(=O)N5CCC[C@@H](N)C5)cc5c4n3CCO5)cc3ccccc32)CC1 [Example 45, (R)-(3-aminopiperidin-1-yl)(2-(1-((l-methylpiperidin-4-yl)methyl)-1H-indol-2-yl)-3,4-dihydro-5-oxa-1,2a-diazaacenaphthylen-7-yl)methanone]
19 | ≥ 6.00 | N[C@@H]1CCCN(C(=O)c2cc3c4c(c2)nc(-c2cc5ccccc5n2CC(F)F)n4CCO3)C1 [Example 47, (R)-(3-aminopiperidin-1-yl)(2-(1-(2,2-difluoroethyl)-1H-indol-2-yl)-3,4-dihydro-5-oxa-1,2a-diazaacenaphthylen-7-yl)methanone]
20 | 5.00 to 6.00 | COCCn1c(-c2nc3cc(C(=O)N4CCC[C@@H](N)C4)cc4c3n2CCO4)cc2ccc(F)cc21 [Example 52]
21 | ≥ 6.00 | N[C@@H]1CCCN(C(=O)c2cc3c4c(c2)nc(-c2cc5cccc(Cl)c5n2CC(F)F)n4CCO3)C1 [Example 56, (R)-(3-aminopiperidin-1-yl)(2-(7-chloro-1-(2,2-difluoroethyl)-1H-indol-2-yl)-3,4-dihydro-5-oxa-1,2a-diazaacenaphthylen-7-yl)methanone]
22 | ≥ 6.00 | Cc1csc(Cn2c(-c3nc4cc(C(=O)N5CCC[C@@H](N)C5)cc5c4n3CCO5)cc3ccccc32)n1 [Example 59, (R)-(3-aminopiperidin-1-yl)(2-(1-((4-methylthiazol-2-yl)methyl)-1H-indol-2-yl)-3,4-dihydro-5-oxa-1,2a-diazaacenaphthylen-7-yl)methanone]
23 | ≥ 6.00 | COc1ccc2c(c1)cc(-c1nc3cc(C(=O)N4CCC[C@@H](N)C4)cc4c3n1CCO4)n2CC1CC1 [Example 60, (R)-(3-aminopiperidin-1-yl)(2-(1-(cyclopropylmethyl)-5-methoxy-1H-indol-2-yl)-3,4-dihydro-5-oxa-1,2a-diazaacenaphthylen-7-yl)methanone]
24 | 5.00 to 6.00 | N[C@@H]1CCCN(C(=O)c2cc3c4c(c2)nc(-c2cc5cc(-c6cccnc6)ccc5n2CC2CC2)n4CCN3)C1 [Example 68, (R)-(3-aminopiperidin-1-yl)(2-(1-(cyclopropylmethyl)-5-(pyridin-3-yl)-1H-indol-2-yl)-5,6-dihydro-4H-imidazo [1,5,4-de]quinoxalin-8-yl)methanone]
25 | ≥ 6.00 | N[C@@H]1CCCN(C(=O)c2cc3c4c(c2)nc(-c2cc5ccccc5n2Cc2ccccn2)n4CCN3)C1 [Example 69, (R)-(3-aminopiperidin-1-yl)(2-(1-(pyridin-2-ylmethyl)-1H-indol-2-yl)-5,6-dihydro-4H-imidazo[1,5,4-de]quinoxalin-8-yl)methanone]
26 | ≥ 6.00 | COc1ccc2cc(-c3nc4cc(C(=O)N5CCC[C@@H](N)C5)cc5c4n3CCN5C)n(CC3CC3)c2c1 [Example 74, (R)-(3-aminopiperidin-1-yl)(2-(1-(cyclopropylmethyl)-6-methoxy-1H-indol-2-yl)-6-methyl-5,6-dihydro-4H-imidazo[1,5,4-de]quinoxalin-8-yl)methanone]
27 | ≥ 6.00 | CN1CCn2c(-c3cc4cc(F)ccc4n3CC3CC3)nc3cc(C(=O)N4CCC[C@@H](N)C4)cc1c32 [Example 75, (R)-(3-aminopiperidin-1-yl)(2-(1-(cyclopropylmethyl)-5-fluoro-1H-indol-2-yl)-6-methyl-5,6-dihydro-4H-imidazo[1,5,4-de]quinoxalin-8-yl)methanone]
